Common to all, as to assay: biochemical
The target of assay [1] is T1, α-1A adrenoreceptor (rat submaxillary gland) (Rattus norvegicus, UniProt P43140).
T1 sequence (P43140 1-466): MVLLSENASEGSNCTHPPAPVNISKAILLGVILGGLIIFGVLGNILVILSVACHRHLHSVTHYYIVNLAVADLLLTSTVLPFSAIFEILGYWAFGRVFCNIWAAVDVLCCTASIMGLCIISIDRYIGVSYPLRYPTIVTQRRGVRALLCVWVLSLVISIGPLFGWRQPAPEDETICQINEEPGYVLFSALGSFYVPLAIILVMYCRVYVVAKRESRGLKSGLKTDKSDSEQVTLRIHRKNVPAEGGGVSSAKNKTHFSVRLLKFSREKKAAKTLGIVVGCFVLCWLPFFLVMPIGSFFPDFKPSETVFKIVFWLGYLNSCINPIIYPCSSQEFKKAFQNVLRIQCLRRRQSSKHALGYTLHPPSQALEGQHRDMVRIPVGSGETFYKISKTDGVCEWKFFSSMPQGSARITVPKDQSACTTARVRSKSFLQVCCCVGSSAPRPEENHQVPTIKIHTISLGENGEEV
It counts as binding. As to conditions: [3H]-prazosin radioligand; rat submaxillary gland membranes; read-out: Radioligand Binding (Ki, nM) 1A (Rat). The method in brief:
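Membranes were prepared from rat submaxillary glands as the α-1A adrenoreceptor source. Competition binding followed Greengrass and Bremner, with bound radioligand measured by scintillation counting.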

Assay [2] has as its target T2, α-1a adrenoreceptor (Bos taurus, UniProt P18130).
T2 sequence (P18130 1-466): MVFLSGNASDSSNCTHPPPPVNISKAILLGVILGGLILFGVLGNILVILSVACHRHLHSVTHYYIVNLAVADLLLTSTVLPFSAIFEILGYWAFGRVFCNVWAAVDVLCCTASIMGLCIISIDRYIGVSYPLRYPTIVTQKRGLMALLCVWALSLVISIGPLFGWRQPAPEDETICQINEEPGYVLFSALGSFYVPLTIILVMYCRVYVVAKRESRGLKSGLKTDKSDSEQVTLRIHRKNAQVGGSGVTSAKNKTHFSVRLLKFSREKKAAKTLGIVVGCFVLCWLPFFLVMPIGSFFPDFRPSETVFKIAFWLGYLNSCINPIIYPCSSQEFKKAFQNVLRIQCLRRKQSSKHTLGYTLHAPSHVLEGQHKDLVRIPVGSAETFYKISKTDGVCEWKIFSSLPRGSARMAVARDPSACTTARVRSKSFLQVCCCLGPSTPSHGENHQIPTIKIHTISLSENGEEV
It counts as binding, bovine. As to conditions: [3H]-prazosin radioligand; cloned receptor in LTK cell membranes; read-out: Radioligand Binding (Ki, nM) 1a (Bovine). A digest of the protocol: (§1)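 Radioactivity counted by liquid scintillation after radioligand binding to membranes. Receptors: cloned α-1a, α-1b, α-1d stably expressed in LTK mouse fibroblasts (G418 selection, SV40 early promoter); rat submaxillary gland membranes for pharmacologically defined α-1A.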

Assay [3] deals with T3, α-1b adrenoreceptor (Mesocricetus auratus, UniProt P18841).
T3 sequence (P18841 1-515): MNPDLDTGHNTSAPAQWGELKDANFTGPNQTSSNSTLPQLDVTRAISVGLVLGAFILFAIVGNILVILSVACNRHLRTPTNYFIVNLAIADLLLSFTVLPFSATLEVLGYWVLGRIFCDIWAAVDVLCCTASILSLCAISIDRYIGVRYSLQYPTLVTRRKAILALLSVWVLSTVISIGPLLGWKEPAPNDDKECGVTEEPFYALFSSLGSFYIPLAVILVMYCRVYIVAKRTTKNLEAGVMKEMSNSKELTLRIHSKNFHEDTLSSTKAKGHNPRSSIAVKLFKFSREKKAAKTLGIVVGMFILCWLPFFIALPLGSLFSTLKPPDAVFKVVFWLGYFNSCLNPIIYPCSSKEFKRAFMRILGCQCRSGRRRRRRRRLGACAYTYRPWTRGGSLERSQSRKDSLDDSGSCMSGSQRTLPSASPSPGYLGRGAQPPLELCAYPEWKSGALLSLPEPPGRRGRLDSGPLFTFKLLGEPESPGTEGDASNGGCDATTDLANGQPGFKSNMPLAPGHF
In kind it is binding, hamster. As to conditions: [3H]-prazosin radioligand; cloned receptor in LTK cell membranes; read-out: Radioligand Binding (Ki, nM) 1b (Hamster). The method in brief: as §1

Assay [4] deals with T4, α-1d adrenoreceptor (Rattus norvegicus, UniProt P23944).
T4 sequence (P23944 1-561): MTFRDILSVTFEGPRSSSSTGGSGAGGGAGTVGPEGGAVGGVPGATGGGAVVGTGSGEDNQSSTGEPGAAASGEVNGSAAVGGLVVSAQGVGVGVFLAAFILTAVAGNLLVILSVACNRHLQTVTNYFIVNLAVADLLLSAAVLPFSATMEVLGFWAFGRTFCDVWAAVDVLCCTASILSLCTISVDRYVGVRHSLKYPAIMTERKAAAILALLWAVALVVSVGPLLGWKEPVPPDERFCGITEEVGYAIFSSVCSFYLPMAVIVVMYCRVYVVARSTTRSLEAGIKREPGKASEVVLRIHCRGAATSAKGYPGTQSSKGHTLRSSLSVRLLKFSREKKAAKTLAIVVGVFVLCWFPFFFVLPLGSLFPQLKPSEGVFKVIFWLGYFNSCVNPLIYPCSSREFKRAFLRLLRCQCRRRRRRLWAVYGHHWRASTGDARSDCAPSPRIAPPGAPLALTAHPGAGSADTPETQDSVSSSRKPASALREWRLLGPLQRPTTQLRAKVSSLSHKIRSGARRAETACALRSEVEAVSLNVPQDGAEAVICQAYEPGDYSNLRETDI
In kind it is binding. Particulars: [3H]-prazosin radioligand; cloned receptor in LTK cell membranes; read-out: Radioligand Binding (Ki, nM) 1d (Rat). A digest of the protocol: as §1

Structures can show the parent of a compound that is named as a salt.

By Ki is commonly meant a dissociation constant, usually derived from enzyme kinetics or from competition with a known ligand.

Consider `COc1cccc2c1[C@@H]1CN(CCCCn3c(=O)[nH]c4c(sc5nccnc54)c3=O)C[C@@H]1CO2` [Example 15, 3-[4-((3aR,9bR)-cis-9-Methoxy-1,2,3,3a,4,9b-hexahydro-[1]-benzopyrano[3,4-c]pyrrol-2-yl)butyl]-pyrazino[2',3':4,5]thieno[3,2-d]pyrimidine-2,4(1H,3H)-dione dihydrochloride], for which the Ki was found to be 0.227 nM in assay [1], 0.068 nM in assay [2], 4.41 nM in assay [3] and 0.928 nM in assay [4].
On to `COc1cccc2c1[C@@H]1CN(CCCCn3c(=O)[nH]c4c(sc5ncc(Cl)nc54)c3=O)C[C@@H]1CO2` [Example 16, 3-[4-((3aR,9bR)-cis-9-Methoxy-1,2,3,3a,4,9b-hexahydro-[1]-benzopyrano[3,4-c]pyrrol-2-yl)butyl]-8-chloro-pyrazino[2',3':4,5]thieno[3,2-d]pyrimidine-2,4(1H,3H)-dione hydrochloride], for which the Ki in assay [1] was 0.373 nM; in assay [2] it was 0.073 nM; in assay [3] it was 8.64 nM; in assay [4], 0.729 nM.
For `COc1cccc2c1[C@@H]1CN(CCCCn3c(=O)[nH]c4c(sc5c(Cl)ccnc54)c3=O)C[C@H]1CO2` [Example 19, 3-[4-((3aS,9bR)-trans-9-Methoxy-1,2,3,3a,4,9b-hexahydro-[1]-benzopyrano[3,4-c]pyrrol-2-yl)butyl]-6-chloro-pyrido[2',3':4,5]thieno[3,2-d]pyrimidine-2,4(1H,3H)-dione hydrochloride], the Ki in assay [1] came out at 0.059 nM; in assay [2], 0.025 nM; in assay [3], 1.13 nM; in assay [4], 0.108 nM.
`COc1cccc2c1[C@@H]1CN(CCCCn3c(=O)[nH]c4c(sc5c(Cl)ccnc54)c3=O)C[C@@H]1CO2` [Example 20, 3-[4-((3aR,9bR-cis-9-Methoxy-1,2,3,3a,4,9b-hexahydro-[1]-benzopyrano[3,4-c]pyrrol-2-yl)butyl]-6-chloro-pyrido[2',3':4,5]thieno[3,2-d]pyrimidine-2,4(1H,3H)-dione hydrochloride]: the Ki amounted to 0.208 nM in assay [1], 0.038 nM in assay [2], 3.5 nM in assay [3] and 0.439 nM in assay [4].
In the same order, the values of `COc1cccc2c1[C@@H]1CN(CCCCn3c(=O)[nH]c4c(sc5ccccc54)c3=O)C[C@H]1CO2` [Example 21, 3-[4-((3aS,9bR)-trans-9-Methoxy-1,2,3,3a,4,9b-hexahydro-[1]-benzopyrano[3,4-c]pyrrol-2-yl)butyl]-[1]benzthieno[3,2-d]pyrimidine-2,4(1H,3H)-dione hydrochloride] are 0.03 nM, 0.018 nM, 0.326 nM and 0.03 nM.
In the same order, the values of `COc1cccc2c1[C@@H]1CN(CCCCn3c(=O)[nH]c4c(sc5ccccc54)c3=O)C[C@@H]1CO2` [Example 22, 3-[4-((3aR,9bR)-cis-9-Methoxy-1,2,3,3a,4,9b-hexahydro-[1]-benzopyrano[3,4-c]pyrrol-2-yl)butyl]-[1]benzthieno[3,2-d]pyrimidine-2,4(1H,3H)-dione hydrochloride] are 0.196 nM, 0.031 nM, 1.16 nM and 0.138 nM.
For `COc1cccc2c1[C@@H]1CN(CCCCCn3c(=O)[nH]c4c(sc5ccccc54)c3=O)C[C@H]1CO2` [Example 23, 3-[5-((3aS,9bR)-trans-9-Methoxy-1,2,3,3a,4,9b-hexahydro-[1]-benzopyrano[3,4-c]pyrrol-2-yl)pentyl]-[1]benzthieno[3,2-d]pyrimidine-2,4(1H,3H)-dione hydrochloride], the Ki in assay [1] turned out to be 0.743 nM; in assay [2], 0.046 nM; in assay [3], 0.973 nM; in assay [4] it was 0.639 nM.
As for `COc1cccc2c1[C@@H]1CN(CCCCCn3c(=O)[nH]c4c(sc5ccccc54)c3=O)C[C@@H]1CO2` [Example 24, 3-[5-((3aR,9bR)-cis-9-Methoxy-1,2,3,3a,4,9b-hexahydro-[1]-benzopyrano[3,4-c]pyrrol-2-yl)pentyl]-[1]benzthieno[3,2-d]pyrimidine-2,4(1H,3H)-dione hydrochloride], the Ki in assay [1] is 5.37 nM; in assay [2], 0.616 nM; in assay [3] it was 5.56 nM; in assay [4], 4.51 nM.
In the same order, the values of `COc1cnc2c(c1)sc1c(=O)n(CCCCN3C[C@H]4COc5cccc(OC)c5[C@@H]4C3)c(=O)[nH]c12` [Example 27, 3-[4-((3aS,9bR)-trans-9-Methoxy-1,2,3,3a,4,9b-hexahydro-[1]-benzopyrano[3,4-c]pyrrol-2-yl)butyl]-7-methoxy-pyrido[2',3':4,5]thieno[3,2-d]pyrimidine-2,4(1H,3H)-dione hydrochloride] are 0.121 nM, 0.044 nM, 0.974 nM and 0.094 nM.
In the same order, the values of `COc1cccc2c1[C@@H]1CN(CCCCn3c(=O)[nH]c4c(sc5ccc(-c6ccccc6)nc54)c3=O)C[C@H]1CO2` [Example 52, 3-[4-((3aS,9bR)-trans-9-Methoxy-1,2,3,3a,4,9b-hexahydro-[1]-benzopyrano[3,4-c]pyrrol-2-yl)butyl]-8-phenyl-pyrido[2',3':4,5]thieno[3,2-d]pyrimidine-2,4(1H,3H)-dione dihydrochloride] are 3.98 nM, 1.08 nM, 13.6 nM and 0.597 nM.
For `COc1cnc2sc3c(=O)n(CCCCN4C[C@H]5COc6cccc(OC)c6[C@@H]5C4)c(=O)[nH]c3c2c1` [Example 55, 3-[4-((3aS,9bR)-trans-9-Methoxy-1,2,3,3a,4,9b-hexahydro-[1]-benzopyrano[3,4-c]pyrrol-2-yl)butyl]-8-methoxy-pyrido[3',2':4,5]thieno[3,2-d]pyrimidine-2,4(1H,3H)-dione hydrochloride], the Ki in assay [1] came to 0.111 nM; in assay [2], 0.103 nM; in assay [3], 1.46 nM; in assay [4], 0.02 nM.
In the case of `COc1cccc2c1[C@@H]1CN(CCCCn3c(=O)[nH]c4c(sc5ccc(-c6cccnc6)nc54)c3=O)C[C@@H]1CO2` [Example 56, 3-[4-((3aR,9bR)-cis-9-Methoxy-1,2,3,3a,4,9b-hexahydro-[1]-benzopyrano[3,4-c]pyrrol-2-yl)butyl]-8-(3-pyridyl)-pyrido[2',3';4,5]thieno[3,2-d]pyrimidine-2,4(1H,3H)-dione dihydrochloride], the Ki amounted to 0.614 nM in assay [1], 0.078 nM in assay [2], 10.2 nM in assay [3] and 1.31 nM in assay [4].

The values are drawn from EP0942911B1, “BENZOPYRANOPYRROLE AND BENZOPYRANOPYRIDINE ALPHA-1 ADRENERGIC COMPOUNDS” (Abbott Laboratories, priority 1996, dated 1998).
